Experiment [1] relates to LLC-PK1. The experiment is described as follows: Inhibition of cisplatin-induced apoptosis in pig LLC-PK1 cells at 50 uM after 24 hrs by annexin V-Alexa Fluor 488/propidium iodide staining-based flow cytometry. It is filed as functional, cell-based. The following applies: Sus scrofa.
The subject of experiment [2] is LLC-PK1. Put plainly: Inhibition of cisplatin-induced JNK phosphorylation in pig LLC-PK1 cells at 50 uM after 24 hrs by Western blotting method. It is filed as cell-based. The following applies: Sus scrofa. Background: A western blot detects proteins with antibodies after separation by electrophoresis.
The test system of experiment [3] is LLC-PK1. The experiment is described as follows: Renoprotective activity in pig LLC-PK1 cells assessed as reduction in cisplatin-induced toxicity by measuring cell viability after 24 hrs by MTT assay. It is filed as functional, cell-based. The note with it: Sus scrofa. Background: Formazan colour is commonly taken as a measure of viable cells.
For experiment [4], the system named is LLC-PK1. The experiment is described as follows: Inhibition of cisplatin-induced p38 phosphorylation in pig LLC-PK1 cells at 50 uM after 24 hrs by Western blotting method. It is filed as cell-based. The note with it: Sus scrofa.
For experiment [5], the system named is LLC-PK1. The experiment is described as follows: Inhibition of cisplatin-induced caspase-3 activity in pig LLC-PK1 cells assessed as decrease in cleaved caspase 3 level at 50 uM after 24 hrs by Western blotting method. It is filed as functional, cell-based. The note with it: Sus scrofa.
Experiment [6] concerns LLC-PK1. The experiment is described as follows: Renoprotective activity in pig LLC-PK1 cells assessed as reduction in cisplatin-induced toxicity by measuring cell viability at 5 to 50 uM after 24 hrs by MTT assay relative to control. In kind it is functional, Sus scrofa.

For 3 compounds, inhibition and Activity results are on record in ChEMBL document CHEMBL3769378, “Protective effect and mechanism of action of saponins isolated from the seeds of gac (Momordica cochinchinensis Spreng.) against cisplatin-induced damage in LLC-PK1 kidney cells” (2016).

Activity calls are given as the source filed them. No cut-off for these calls is given here.

On to `C[C@H]1O[C@H](O[C@H]2[C@H](O)[C@@H](C(=O)O)O[C@@H](O[C@@H]3CC[C@]4(C)[C@H](CC[C@@]5(C)[C@H]4CC=C4[C@H]6CC(C)(C)CC[C@@]6(C(=O)O)CC[C@@]45C)[C@@]3(C)C=O)[C@@H]2O[C@H]2O[C@@H](CO)[C@@H](O)[C@@H](O)[C@@H]2O)[C@@H](O)[C@@H](O)[C@@H]1O`, for which the inhibition result in the experiment on LLC-PK1 [1], in the experiment on LLC-PK1 [2], in the experiment with LLC-PK1 [4] and in the experiment with LLC-PK1 [5] was “Active” throughout. Besides, the Activity entry is “Dose-dependent effect” with LLC-PK1 [3] and “<=80%” in the experiment on LLC-PK1 [6].

With `C[C@H]1O[C@H](O[C@H]2[C@H](O)[C@@H](C(=O)O)O[C@@H](O[C@@H]3CC[C@]4(C)[C@H](CC[C@@]5(C)[C@H]4CC=C4[C@H]6CC(C)(C)CC[C@@]6(C(=O)O)[C@@H](O)C[C@@]45C)[C@@]3(C)C=O)[C@@H]2O[C@H]2O[C@@H](CO)[C@@H](O)[C@@H](O)[C@@H]2O)[C@@H](O)[C@@H](O)[C@@H]1O`, the inhibition result with LLC-PK1 [1], in the experiment on LLC-PK1 [2], in the experiment with LLC-PK1 [4] and in the experiment on LLC-PK1 [5] was “Active” in each case. The Activity entry with LLC-PK1 [3] is “Dose-dependent effect”; with LLC-PK1 [6], “<=80%”.

With `C[C@@H]1O[C@@H](O[C@H]2[C@H](O)[C@@H](C(=O)O)O[C@@H](O[C@@H]3CC[C@]4(C)[C@H](CC[C@@]5(C)[C@H]4CC=C4[C@H]6CC(C)(C)CC[C@@]6(C(=O)O[C@@H]6O[C@H](C)[C@H](O)[C@H](O)[C@H]6O[C@H]6O[C@H](C)[C@@H](O[C@H]7OC[C@H](O)[C@@H](O)[C@@H]7O)[C@H](O[C@H]7O[C@@H](CO)[C@H](O)[C@@H](O[C@@H]8OC[C@@H](O)[C@H](O)[C@H]8O)[C@@H]7O)[C@@H]6O)CC[C@@]45C)[C@@]3(C)C=O)[C@@H]2O[C@@H]2O[C@H](CO)[C@H](O)[C@H](O)[C@H]2O)[C@H](O)[C@H](O)[C@H]1O`, in the experiment on LLC-PK1 [6] (Sus scrofa), the result was Active.
